Columns and labels:
[1] = system: C8161 human metastatic melanoma cells; experiment: Experimental metastasis assay, C8161 cells, treatment post tumour cell injection; format: in vivo, human cells in mice; settings: C8161 cells i.v. into SCID mice; treatment initiated after 2 days; lungs 5-7 weeks later
Description: C8161 human melanoma cells were seeded into 100 mm tissue culture dishes at a density of 2×10^6 and incubated overnight at 37° C. in α-MEM medium supplemented with 10% FBS. The cells were trypsinized, collected by centrifugation and aliquots were removed from the suspension to determine the cell viability using trypan blue exclusion test. […] Treatment was initiated after 2 days. Estimates of the number of lung nodules were made 5-7 weeks later, after excised lungs from individual mice were stained with picric acid dye solution (75% picric acid, 20% formaldehyde, 5% glacial acetic acid).
Murine R3 fibrosarcoma and human C8161 melanoma cells injected into the tail vein of mice form observable lung nodules 2 weeks post-injection. […] To more accurately reflect the clinical situation, mice were treated with SEQ ID NO:1 post tumour cell injection. C8161 human metastatic melanoma cells were seeded into 100 mm tissue culture dishes at a density of 2×10^6 and incubated overnight at 37° C. in α-MEM medium supplemented with 10% FBS. The cells were trypsinized, collected by centrifugation and aliquots were removed from the suspension to determine the cell viability using trypan blue exclusion test. Approximately 1×10^5 cells suspended in 0.1 ml of PBS were injected into the tail veins of 6-8 week old female SCID mice. Treatment was initiated after 2 days. Estimates of the number of lung nodules were made 5-7 weeks later, after excised lungs from individual mice were stained with picric acid dye solution (75% picric acid, 20% formaldehyde, 5% glacial acetic acid). The results are shown in FIG. 31, bars represent the mean number of nodules per mouse with standard error.

[2] = system: human Burkitt's lymphoma (Raji) cells; experiment: Survival of SCID mice bearing human Burkitt's lymphoma (Raji); format: in vivo, human cells in mice; settings: 10 mg/kg i.v. every second day
Description: Mice with established human Burkitt's lymphoma tumours were treated every second day with either saline or SEQ ID NO:1 for 44 days as described above. The control group mice all died from disease progression by day 20. At day 44, the SEQ ID NO:1 mice continued treatment on a weekly basis until stopping the treatment at day 73.
As an additional test of efficacy SEQ ID NO:1 was administered to SCID mice bearing active Burkitt's lymphoma (FIG. 30). Viable human Burkitt's lymphoma (Raji) cells (5×10^6) collected from subconfluent logarithmically growing cultures were injected i.v. into each animal and disease was allowed to establish for 2 days. SEQ ID NO:1, SEQ ID NO:3 and SEQ ID NO:2, in normal saline were administered by tail vein injection every second day at a dose of 10 mg/kg. At day 40 the treatment schedule was reduced to 10 mg/kg every 3 days. Control animals received saline alone, without oligonucleotide. Survival is presented as a percentage of the starting number of mice over time.

[3] = system: LS513 multi-drug resistant colon carcinoma cells; experiment: LS513 multi-drug resistant colon carcinoma xenograft in SCID mice, combination with CPT-11 (2.8); format: in vivo, human cells in mice; settings: LS513 (colon) multi-drug resistant (CPT-11 sensitive), SCID; SEQ ID NO:1 10 mg/kg i.v. every other day; CPT-11 20 mg/kg/day i.p. 5 days
Description: (§1) BxPC-3 is a gemcitabine resistant call line. […] Gemcitabine was administered intravenously every three days at a dose of 100 mg/kg. Antitumour activities were estimated by the inhibition of tumour volume, which was measured with caliper. Each point represents mean tumour volume calculated from 10 animals per experimental group. […] Hela S3 is a hydroxyurea resistant cell line. […] Hydroxyurea was administered intraperitoneally every day at a dose of 250 mg/kg for 10 days. Cisplatin was administered intravenously once a week for three weeks at a dose of 4 mg/kg. Antitumour activities were estimated by the inhibition of tumour volume, which was measured with caliper. Each point represents mean tumour volume calculated from 10 animals per experimental group. […] Cisplatin was administered intravenously once a week for three weeks at a dose of 4 mg/kg. Taxol was administered intravenously once a week for three weeks at a dose of 10 mg/kg. Antitumour activities were estimated by the inhibition of tumour volume, which was measured with caliper. Each point represents mean tumour volume calculated from 10 animals per experimental group. […] Taxol was administered i.p. once a week at a dose of 10 mg/kg. Antitumour activities were estimated by the inhibition of tumour volume (FIG. 12A), which was measured with calipers. Each point represents mean tumour volume calculated from 10 animals per experimental group. […] Antitumour activities were estimated by the inhibition of tumour volume, which was measured with caliper. Each point represents mean tumour volume calculated from 9-10 animals per experimental group. […] Antitumour activities were estimated by the inhibition of tumour volume, which was measured with caliper. Each point represents mean tumour volume calculated from 10 animals per experimental group. […] Anti-tumour activity was estimated by the inhibition of tumour volume, which was measured with caliper. Each point represents mean tumour volume calculated from 10 animals per experimental group. […] Antitumour activities were estimated by the inhibition of tumour volume, which was measured with caliper. […]

[4] = system: HT-29 human colon cancer cells; experiment: HT-29 colon tumour xenograft in nude mice, combination with CPT-11 (1.2); format: in vivo, human cells in mice; settings: HT-29 (colon), CD-1; SEQ ID NO:1 10 mg/kg i.v. every other day; CPT-11 20 mg/kg i.p. days 7-12
Description: All treatments were stopped at day 22. […] All treatments were stopped at day 32. […] All treatments were stopped at day 36.

[5] = system: Hela S3 human cervix epitheloid carcinoma cells; experiment: Hela S3 hydroxyurea resistant cervix carcinoma xenograft in SCID mice; format: in vivo, human cells in mice; settings: Hela S3 (cervix), hydroxyurea resistant, SCID; SEQ ID NO:1 10 mg/kg i.v. every other day 6 times; Hydroxyurea 250 mg/kg i.p. daily 10 days; Cisplatin 4 mg/kg i.v. weekly x3
Description: BxPC-3 is a gemcitabine resistant call line. […] Gemcitabine was administered intravenously every three days at a dose of 100 mg/kg. Antitumour activities were estimated by the inhibition of tumour volume, which was measured with caliper. Each point represents mean tumour volume calculated from 10 animals per experimental group. […] Hela S3 is a hydroxyurea resistant cell line. […] Hydroxyurea was administered intraperitoneally every day at a dose of 250 mg/kg for 10 days. Cisplatin was administered intravenously once a week for three weeks at a dose of 4 mg/kg. Antitumour activities were estimated by the inhibition of tumour volume, which was measured with caliper. Each point represents mean tumour volume calculated from 10 animals per experimental group. […] Cisplatin was administered intravenously once a week for three weeks at a dose of 4 mg/kg. Taxol was administered intravenously once a week for three weeks at a dose of 10 mg/kg. Antitumour activities were estimated by the inhibition of tumour volume, which was measured with caliper. Each point represents mean tumour volume calculated from 10 animals per experimental group. […] Taxol was administered i.p. once a week at a dose of 10 mg/kg. Antitumour activities were estimated by the inhibition of tumour volume (FIG. 12A), which was measured with calipers. Each point represents mean tumour volume calculated from 10 animals per experimental group. Animals were sacrificed and tumour weights taken at the end of the study (FIG. 12C). […] The effects of combined treatment were greater than either treatment alone. […] Cisplatin was administered intravenously once a week for four weeks at a dose of 4 mg/kg. Taxol was administered intravenously once a week for four weeks at a dose of 20 mg/kg. Antitumour activities were estimated by the inhibition of tumour volume, which was measured with caliper. Each point represents mean tumour volume calculated from 9-10 animals per experimental group. […] Cisplatin was administered intravenously once a week for four weeks at a dose of 4 mg/kg. Antitumour activities were estimated by the inhibition of tumour volume, which was measured with caliper. Each point represents mean tumour volume calculated from 10 animals per experimental group. At the end of the study the animals were sacrificed and tumours weighed. […] Taxol was administered i.p. once a week at a dose of 10 mg/kg. Anti-tumour activity was estimated by the inhibition of tumour volume, which was measured with caliper. Each point represents mean tumour volume calculated from 10 animals per experimental group. In addition animals were sacrificed and tumour weights taken at the end of the study. […] CPT-11 was administered i.p. for 5 days at a dose of 20 mg/kg/day. Antitumour activities were estimated by the inhibition of tumour volume, which was measured with caliper. Each point represents mean tumour volume calculated from 10 animals per experimental group. Tumour weights were measured after animals were sacrificed at the end of the treatment. These cells are not resistant to CPT-11 which was used as a positive control.

[6] = system: SK-OV-3 human ovary adenocarcinoma cells; experiment: SK-OV-3 ovary tumour xenograft in CD-1 nude mice, combination with taxol or cisplatin (1.8); format: in vivo, human cells in mice; settings: SK-OV-3 (ovary), CD-1; SEQ ID NO:1 10 mg/kg i.v. every other day 17 times; Taxol 10 mg/kg weekly; Cisplatin 4 mg/kg weekly
Description: After 52 days the mice were sacrificed and the tumours weighed. […] Mitoxantrone was administered intravenously once at the beginning of the treatments at a dose of 2 mg/kg (FIG. 4A) or once a week for four weeks at a reduced dose of 0.8 mg/kg (FIG. 4B). All treatments were stopped at day 50 (FIG. 4A) or 48 (FIG. 4B), respectively. […] Mitoxantrone was administered intravenously once at the beginning of the treatments at a dose of 2 mg/kg (FIG. 5A) or once a week for four weeks at a reduced dose of 0.8 mg/kg (FIG. 5B). All treatments were stopped at day 42 (FIG. 5A) or 38 (FIG. 5B), respectively. […] A2058 is a metastatic melanoma cell line. […] All treatments were stopped at day 24. […] Taxol was administered intravenously once a week at a dose of 10 mg/kg for three (FIG. 7A) or four weeks (FIG. 7C). Doxorubicin was administered intravenously once a week at a dose of 5 mg/kg for first three weeks (FIG. 7A) or for two weeks (FIG. 7C). All treatments were stopped at day 33 (FIG. 7A) or at day 26 (FIG. 7C), respectively. […] In FIG. 7C, antitumour activities were estimated by the inhibition of tumour volume, which was measured with calipers. Each point represents mean tumour volume calculated from 10 animals per experimental group. […] Taxol was administered intravenously once a week for first three weeks and intraperitoneally once a week for next two weeks at a dose of 10 mg/kg. Cisplatin was administered intravenously once a week for first three weeks and intraperitoneally once a week for next two weeks at a dose of 4 mg/kg. All treatments were stopped at day 40. Antitumour activities were estimated by the inhibition of tumour volume, which was measured with caliper. Each point represents mean tumour volume calculated from 9 animals per experimental group.

[7] = system: MDA-CDDP-S4 human in vivo-selected Cisplatin-resistant breast adenocarcinoma cells; experiment: MDA-CDDP-S4 Cisplatin-resistant breast adenocarcinoma, fat pad, SCID mice (2.3); design: species or system human cells in mice
Description: (§2) BxPC-3 is a gemcitabine resistant call line. […] Gemcitabine was administered intravenously every three days at a dose of 100 mg/kg. Antitumour activities were estimated by the inhibition of tumour volume, which was measured with caliper. Each point represents mean tumour volume calculated from 10 animals per experimental group. […] Hela S3 is a hydroxyurea resistant cell line. […] Hydroxyurea was administered intraperitoneally every day at a dose of 250 mg/kg for 10 days. Cisplatin was administered intravenously once a week for three weeks at a dose of 4 mg/kg. Antitumour activities were estimated by the inhibition of tumour volume, which was measured with caliper. Each point represents mean tumour volume calculated from 10 animals per experimental group. […] Cisplatin was administered intravenously once a week for three weeks at a dose of 4 mg/kg. Taxol was administered intravenously once a week for three weeks at a dose of 10 mg/kg. Antitumour activities were estimated by the inhibition of tumour volume, which was measured with caliper. Each point represents mean tumour volume calculated from 10 animals per experimental group. […] Taxol was administered i.p. once a week at a dose of 10 mg/kg. Antitumour activities were estimated by the inhibition of tumour volume (FIG. 12A), which was measured with calipers. Each point represents mean tumour volume calculated from 10 animals per experimental group. Animals were sacrificed and tumour weights taken at the end of the study (FIG. 12C). […] Cisplatin was administered intravenously once a week for four weeks at a dose of 4 mg/kg. Taxol was administered intravenously once a week for four weeks at a dose of 20 mg/kg. Antitumour activities were estimated by the inhibition of tumour volume, which was measured with caliper. Each point represents mean tumour volume calculated from 9-10 animals per experimental group. […] Cisplatin was administered intravenously once a week for four weeks at a dose of 4 mg/kg. Antitumour activities were estimated by the inhibition of tumour volume, which was measured with caliper. Each point represents mean tumour volume calculated from 10 animals per experimental group. At the end of the study the animals were sacrificed and tumours weighed. […] Taxol was administered i.p. once a week at a dose of 10 mg/kg. Anti-tumour activity was estimated by the inhibition of tumour volume, which was measured with caliper. Each point represents mean tumour volume calculated from 10 animals per experimental group. In addition animals were sacrificed and tumour weights taken at the end of the study. […] CPT-11 was administered i.p. for 5 days at a dose of 20 mg/kg/day. Antitumour activities were estimated by the inhibition of tumour volume, which was measured with caliper. Each point represents mean tumour volume calculated from 10 animals per experimental group. Tumour weights were measured after animals were sacrificed at the end of the treatment. These cells are not resistant to CPT-11 which was used as a positive control.

[8] = system: MDA-MB435-To.1 human Taxol-resistant breast adenocarcinoma cells; experiment: MDA-MB435-To.1 Taxol-resistant breast adenocarcinoma, fat pad, SCID mice (2.5); format: in vivo, human cells in mice; settings: MDA-MB435-To.1 (breast), Taxol resistant, SCID; SEQ ID NO:1 10 mg/kg i.v. every other day 15 times; Taxol 20 mg/kg, Cisplatin 4 mg/kg i.v. weekly x4
Description: as §2

[9] = system: MDA-MB435-To.1 human Taxol-resistant breast adenocarcinoma cells; experiment: MDA-MB435-To.1 Taxol-resistant breast adenocarcinoma, fat pad, CB-17 SCID mice, combination with Cisplatin (2.6); format: in vivo, human cells in mice; settings: MDA-MB435-To.1 (breast), Taxol resistant, CB-17/SCID; SEQ ID NO:1 10 mg/kg i.v. every other day; Cisplatin 4 mg/kg i.v. weekly x4
Description: as §1

## 5′-GGCTAAACTCGTCCACCAAG-3′ (listed as DNA, chemistry not given here) [SEQ ID NO:2, reference compound]
[1]
  Lung nodule formation / anti-metastatic activity (FIG. 31): no anti-metastatic activity
[2]; SCID mice (Example 7, FIG. 30), from day 40 every 3 days
  Survival of mice: neither SEQ ID NO:3 nor SEQ ID NO:2 control ODNs prolonged survival
[2]; SCID mice, stopped at day 42, sacrificed day 73, untreated all died within 23 days
  Survival of mice: no observed efficacy

## CCc1c2c(nc3ccc(OC(=O)N4CCC(N5CCCCC5)CC4)cc13)-c1cc3c(c(=O)n1C2)COC(=O)[C@]3(O)CC [CPT-11, irinotecan, reference compound]
[3]
  Tumour weight as % of saline control: 47%
[4]
  Tumour weight as % of saline control: 36%

## N.N.[Cl][Pt][Cl] [Cisplatin, reference compound]
[5]
  Tumour weight as % of saline control: 63%
[6]
  tumour volume data as percentage of saline control: 67%
[7]; MDA-CDDP-S4 (breast), Cisplatin resistant, SCID, SEQ ID NO:1 10 mg/kg i.v. every other day 9 times, Taxol 10 mg/kg, Cisplatin 4 mg/kg i.v. weekly x3
  Tumour weight as % of saline control: 78%
[7]; MDA-CDDP-S4 Cisplatin-resistant, SCID mice, SEQ ID NO:1 10 mg/kg i.v. every other day, Cisplatin 4 mg/kg, Taxol 10 mg/kg i.v. weekly
  Antitumour effect (FIG. 11): ineffective against Cisplatin-resistant tumour
[8]
  Tumour weight as % of saline control: 69%
[9]
  Tumour weight as % of saline control: 56%
